Assays:
Type in all cases: cell-based
[1] = test system: SK-N-SH neuroblastoma cells; assay: Anti-proliferative activity (MTS assay) against SK-N-SH neuroblastoma cells
Experimental: The ability of compounds of the disclosure to inhibit the proliferation of SK-N-SH neuroblastoma cells was also assessed. […] Cell viability was normalised to control (vehicle alone) and dose response curves and IC50 values (Table 4) were determined using Graph Pad Prism 6.

A549 (NSCLC) = assay: Anti-proliferative activity (Cell-Titre luminescence) against A549 non-small cell lung cancer cells; conditions: 72 h exposure, Cell-Titre luminescent reagent
Summary of the method: (§1)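 EC50 derived by nonlinear variable-slope sigmoidal fit of luminescent Cell-Titre viability, normalised to vehicle control. Compound (0.1–30 μM, six concentrations) applied for 72 h after 24 h attachment at 37 °C, 5% CO2.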

A2780 (ovarian) = assay: Anti-proliferative activity (Cell-Titre luminescence) against A2780 ovarian cancer cells; conditions: 72 h exposure, Cell-Titre luminescent reagent
Summary of the method: as §1

| Compound | IC50 ([1]; Homo sapiens, SK-N-SH, 72 h) [µM] | IC50 (A549 (NSCLC); Homo sapiens, A549, 72 h) [µM] | IC50 (A2780 (ovarian); Homo sapiens, A2780, 72 h) [µM] | IC50 ([1]; 72 hours) [µM] | IC50 (A549 (NSCLC)) [µM] | IC50 (A2780 (ovarian)) [µM] |
| --- | --- | --- | --- | --- | --- | --- |
| CN(C)CCCNc1nc(Nc2cccc(C(F)(F)F)c2)nc2ccccc12 [Compound 69, N^4-(3-(dimethylamino)propyl)-N^2-(3-(trifluoromethyl)phenyl)quinazoline-2,4-diamine] | 2.39 | 2.74 | 0.797 | – | – | – |
| N^4-(2-(dimethylamino)ethyl)-N^2-(3-(trifluoromethyl)phenethyl)quinazoline-2,4-diamine [Compound 64] | – | – | – | 1.45 | 2.87 | 2.38 |
| COc1ccc(CCNc2nc(NCCN3CCN(C)CC3)c3ccccc3n2)cc1 [Compound 54, N^2-(4-methoxyphenethyl)-N^4-(2-(4-methylpiperazin-1-yl)ethyl)quinazoline-2,4-diamine] | 1.15 | 4.65 | 3.8 | – | – | – |
| CN(C)CCNc1nc(-c2ccc[nH]2)nc2ccccc12 [Compound 97, N^1-(2-(1H-pyrrol-2-yl)quinazolin-4-yl)-N^2,N^2-dimethylethane-1,2-diamine] | 8.54 | 4.99 | 3.07 | – | – | – |
| COc1ccc(Nc2nc(NCCc3c[nH]cn3)c3ccccc3n2)cc1 [Compound 80, N^4-(2-(1H-imidazol-4-yl)ethyl)-N^2-(4-methoxyphenyl)quinazoline-2,4-diamine] | 2.87 | 4 | 3.33 | – | – | – |
| CC(C)c1ccc(CCNc2nc(NCCN3CCN(C)CC3)c3ccccc3n2)cc1 [Compound 128, N^2-(4-isopropylphenethyl)-N^4-(2-(4-methylpiperazin-1-yl)ethyl)quinazoline-2,4-diamine] | 0.57 | 0.943 | 0.606 | – | – | – |
| Cc1cccc(CCNc2nc(NCCN3CCN(C)CC3)c3ccccc3n2)c1 [Compound 124, N^2-(3-methylphenethyl)-N^4-(2-(4-methylpiperazin-1-yl)ethyl)quinazoline-2,4-diamine] | 0.68 | 2.25 | 2.74 | – | – | – |
| FC(F)(F)c1cccc(CCNc2nc(NCCc3c[nH]cn3)c3ccccc3n2)c1 [Compound 84, N^4-(2-(1H-imidazol-4-yl)ethyl)-N^2-(3-(trifluoromethyl)phenethyl)quinazoline-2,4-diamine] | 1.26 | 1.39 | 1.51 | – | – | – |
| CN1CCN(CCNc2nc(NCCc3cccc(Cl)c3)nc3ccccc23)CC1 [Compound 125, N^2-(3-chlorophenethyl)-N^4-(2-(4-methylpiperazin-1-yl)ethyl)quinazoline-2,4-diamine] | 0.73 | 1.62 | 0.968 | – | – | – |
| CCc1ccc(CCNc2nc(NCCCO)c3ccccc3n2)cc1 [Compound 93, 3-((2-((4-ethylphenethyl)amino)quinazolin-4-yl)amino)propan-1-ol] | 4.43 | 10.1 | 2.65 | – | – | – |
| CN(C)CCNc1nc(-c2ccsc2)nc2ccccc12 [Compound 96, N^1,N^1-dimethyl-N^2-(2-(thiophen-3-yl)quinazolin-4-yl)ethane-1,2-diamine] | 8.77 | 6.7 | 5.52 | – | – | – |
| CN1CCN(CCNc2nc(NCCc3cccc(C(F)(F)F)c3)nc3ccccc23)CC1 [Compound 51, N^4-(2-(4-methylpiperazin-1-yl)ethyl)-N^2-(3-(trifluoromethyl)phenethyl)quinazoline-2,4-diamine] | 1.4 | 3.07 | 1.39 | – | – | – |

Reference: patent publication US20230339866A1, “Quinazoline compounds and the use thereof in the treatment of cancer” (TROBIO THERAPEUTICS PTY LTD, priority 2020, published 2023)
